The values that follow come from US9540391B2, “Isomannide derivatives as inhibitors of soluble epoxide hydrolase” (SANOFI, priority 2013, dated 2017).

Counter-ions that a name gives are not always drawn.

In this assay the target is T1, recombinant sEH (Homo sapiens, UniProt P34913).
T1 construct: made in house; host or cells: Sf9 insect cells
T1 sequence (P34913 1-555): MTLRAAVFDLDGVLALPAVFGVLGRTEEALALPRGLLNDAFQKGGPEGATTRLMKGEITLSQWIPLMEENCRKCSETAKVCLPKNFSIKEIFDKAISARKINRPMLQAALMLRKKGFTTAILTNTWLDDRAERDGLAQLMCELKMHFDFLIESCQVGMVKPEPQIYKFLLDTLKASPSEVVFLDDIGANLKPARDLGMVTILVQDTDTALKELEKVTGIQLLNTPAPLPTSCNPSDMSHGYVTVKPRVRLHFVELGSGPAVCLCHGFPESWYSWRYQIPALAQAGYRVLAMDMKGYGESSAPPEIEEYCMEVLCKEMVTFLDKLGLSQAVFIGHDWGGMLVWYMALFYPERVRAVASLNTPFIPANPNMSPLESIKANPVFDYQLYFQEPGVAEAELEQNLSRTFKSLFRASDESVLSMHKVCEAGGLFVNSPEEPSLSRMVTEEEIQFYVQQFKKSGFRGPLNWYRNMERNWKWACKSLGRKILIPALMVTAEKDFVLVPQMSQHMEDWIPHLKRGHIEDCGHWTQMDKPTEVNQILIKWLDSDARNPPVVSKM
Put plainly: biochemical screening assay for inhibition of soluble epoxide hydrolase (fluorometric, Phome substrate). The gist of the method:
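Reading fluorescence before substrate addition and after completion corrected for autofluorescence. Reaction: 5 μM Phome, 2 nM recombinant human sEH (Sf9-expressed), compound 0.0001–10 μM, 25 mM Hepes with 0.01% albumin, 15 min pre-incubation then 60 min at 30 °C; IC50 derived from % inhibition.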

Consider `COC1COCCC1NC(=O)N[C@H]1CO[C@H]2[C@@H]1OC[C@@H]2Oc1cccnc1C` (stereo partly drawn) [Example 78, 1-(3-methoxy-tetrahydro-pyran-4-yl)-3-[(3S,3aR,6S,6aS)-6-(2-methyl-pyridin-3-yloxy)-hexahydro-furo[3,2-b]furan-3-yl]-urea; hydrochloride], for which the IC50 is 1330 nM. As for `CCOC1COCCC1NC(=O)N[C@H]1CO[C@H]2[C@@H]1OC[C@@H]2Oc1cccnc1C` (stereo partly drawn) [Example 79, 1-(3-ethoxy-tetrahydro-pyran-4-yl)-3-[(3S,3aR,6S,6aS)-6-(2-methyl-pyridin-3-yloxy)-hexahydro-furo[3,2-b]furan-3-yl]-urea; hydrochloride], the IC50 was 987 nM. With `Cc1ncccc1O[C@H]1CO[C@H]2[C@@H]1OC[C@@H]2NC(=O)NC1COC(C)(C)OC1` [Example 80, 1-(2,2-dimethyl-[1,3]dioxan-5-yl)-3-[(3S,3aR,6S,6aS)-6-(2-methyl-pyridin-3-yloxy)-hexahydro-furo[3,2-b]furan-3-yl]-urea], the IC50 worked out at 1160 nM. As to `Cc1ncccc1O[C@H]1CO[C@H]2[C@@H]1OC[C@@H]2NC(=O)NC1CCCN(C(=O)OC(C)(C)C)C1` (stereo partly drawn) [Example 81, 3-{3-[(3S,3aR,6S,6aS)-6-(2-methyl-pyridin-3-yloxy)-hexahydro-furo[3,2-b]furan-3-yl]-ureido}-piperidine-1-carboxylic acid tert-butyl ester], the IC50 worked out at 16 nM.

For the compound `Cc1ncccc1O[C@H]1CO[C@H]2[C@@H]1OC[C@@H]2NC(=O)NC1CCCNC1` (stereo partly drawn) [Example 82, 1-[(3S,3aR,6S,6aS)-6-(2-methyl-pyridin-3-yloxy)-hexahydro-furo[3,2-b]furan-3-yl]-3-piperidin-3-yl-urea; hydrochloride], the IC50 was determined as 2620 nM. In the case of `Cc1ncccc1O[C@H]1CO[C@H]2[C@@H]1OC[C@@H]2NC(=O)NC1CCCN(C(=O)c2ccc(F)cc2)C1` (stereo partly drawn) [Example 83, 1-[1-(4-fluoro-benzoyl)-piperidin-3-yl]-3-[(3S,3aR,6S,6aS)-6-(2-methyl-pyridin-3-yloxy)-hexahydro-furo[3,2-b]furan-3-yl]-urea] it was 182 nM; in that of `Cc1ncccc1OC1COC2C(NC(=O)NC3CCCN(C(=O)C(C)C)C3)COC12` [Example 84, 1-(1-Isobutyryl-piperidin-3-yl)-3-[(3S,-3aR,6S,6aS)-6-(2-methyl-pyridin-3-yloxy)-hexahydro-furo[3,2-b]furan-3-yl]-urea], 59 nM; in that of `Cc1ncccc1O[C@H]1CO[C@H]2[C@@H]1OC[C@@H]2NC(=O)NC1CCCN(C(=O)C2CC2)C1` (stereo partly drawn) [Example 85, 1-(1-Cyclopropanecarbonyl-piperidin-3-yl)-3-[(3S,3aR,6S,6aS)-6-(2-methyl-pyridin-3-yloxy)-hexahydro-furo[3,2-b]furan-3-yl]-urea], 20 nM. On to `Cc1ncccc1O[C@H]1CO[C@H]2[C@@H]1OC[C@@H]2NC(=O)NC1CCCN(S(C)(=O)=O)C1` (stereo partly drawn) [Example 86, 1-(1-Methanesulfonyl-piperidin-3-yl)-3-[(3S,3aR,6S,6aS)-6-(2-methyl-pyridin-3-yloxy)-hexahydro-furo[3,2-b]furan-3-yl]-urea], for which the IC50 is 41 nM.

Turning to `Cc1ncccc1O[C@H]1CO[C@H]2[C@@H]1OC[C@@H]2NC(=O)NC1CCCN(C(=O)C(F)(F)F)C1` (stereo partly drawn) [Example 87, 1-[(3S,3aR,6S,6aS)-6-(2-Methyl-pyridin-3-yloxy)-hexahydro-furo[3,2-b]furan-3-yl]-3-[1-(2,2,2-trifluoro-acetyl)-piperidin-3-yl]-urea], the IC50 stood at 10 nM. As for `Cc1ncccc1O[C@H]1CO[C@H]2[C@@H]1OC[C@@H]2NC(=O)NC1CCCN(C(=O)C(C)(C)C)C1` (stereo partly drawn) [Example 88, 1-[1-(2,2-Dimethyl-propionyl)-piperidin-3-yl]-3-[(3S,3aR,6S,6aS)-6-(2-methyl-pyridin-3-yloxy)-hexahydro-furo[3,2-b]furan-3-yl]-urea], the IC50 was found to be 53 nM.
